These results are taken from patent US6900219B2, “ABCA-1 elevating compounds” (CV Therapeutics, Inc., priority 2002, dated 2005).

The experiment has as its system ABCA-1 gene. The experiment can be described thus: compounds tested and found to elevate cellular expression of the ABCA-1 gene (Examples 1-6; test not named). The experiment is classed as cell-based. On the procedure: Activity testing is conducted as described in those patents and patent applications referenced above, and in the Examples below, and by methods apparent to one skilled in the art.
Turning to `O=C(NCCc1ccccn1)c1sc2ccccc2c1Cl` [(3-chlorobenzo[b]thiophen-2-yl)-N-(2-pyridyl)ethyl)carboxamide], the “cellular expression of the ABCA-1 gene” value is on record as “elevate cellular expression of the ABCA-1 gene”.

For the compound `Cc1cccc(NC(=O)c2sc3ccccc3c2Cl)c1` [(3-chlorobenzo[b]thiophen-2-yl)-N-(3-methylphenyl)carboxamide], the “cellular expression of the ABCA-1 gene” value is on record as “elevate cellular expression of the ABCA-1 gene”.

Take `O=C(Nc1ccc(Br)cc1)c1sc2ccccc2c1Cl` [(3-chlorobenzo[b]thiophen-2-yl)-N-(4-bromophenyl)carboxamide]: the “cellular expression of the ABCA-1 gene” value was “elevate cellular expression of the ABCA-1 gene”.

On to `O=C(Nc1ccc(Cl)cc1)c1sc2ccccc2c1Cl` [(3-chlorobenzo[b]thiophen-2-yl)-N-(4-chlorophenyl)carboxamide], for which the “cellular expression of the ABCA-1 gene” value is “elevate cellular expression of the ABCA-1 gene”.

As for `O=C(NC1=NCCS1)c1cccc(Cl)c1` [(3-chlorophenyl)-N-(1,3-thiazolin-2-yl)carboxamide], the “cellular expression of the ABCA-1 gene” value is recorded as “elevate cellular expression of the ABCA-1 gene”.

As to `O=C1CSC(NC(=O)c2cccc(Cl)c2)=N1` [(3-chlorophenyl)-N-(4-oxo(1,3-thiazolin-2-yl))carboxamide], the “cellular expression of the ABCA-1 gene” value is “elevate cellular expression of the ABCA-1 gene”.

For `O=C(NC1=NCCS1)c1cccc(F)c1` [(3-fluorophenyl)-N-(1,3-thiazolin-2-yl)carboxamide], the “cellular expression of the ABCA-1 gene” value is given as “elevate cellular expression of the ABCA-1 gene”.

Take `O=C1CSC(NC(=O)c2cccc(F)c2)=N1` [(3-fluorophenyl)-N-(4-oxo(1,3-thiazolin-2-yl))carboxamide]: the “cellular expression of the ABCA-1 gene” value is recorded as “elevate cellular expression of the ABCA-1 gene”.

On to `COc1cccc(C(=O)NC2=NCCS2)c1` [(3-methoxyphenyl)-N-(1,3-thiazolin-2-yl)carboxamide], for which the “cellular expression of the ABCA-1 gene” value is reported as “elevate cellular expression of the ABCA-1 gene”.

`COc1cccc(C(=O)NC2=NC(=O)CS2)c1` [(3-methoxyphenyl)-N-(4-oxo(1,3-thiazolin-2-yl))carboxamide]: the “cellular expression of the ABCA-1 gene” value is “elevate cellular expression of the ABCA-1 gene”.

For `O=C(c1ccc(Br)cc1)N(CCc1ccccc1)Cc1ccc(C(F)(F)F)cc1` [(4-bromophenyl)-N-(2-phenylethyl)-N-{[4-(trifluoromethyl)phenyl]methyl}-carboxamide], the “cellular expression of the ABCA-1 gene” value is on record as “elevate cellular expression of the ABCA-1 gene”.

Turning to `O=C(NC1=NCCS1)c1ccc(Cl)cc1` [(4-chlorophenyl)-N-(1,3-thiazolin-2-yl)carboxamide], the “cellular expression of the ABCA-1 gene” value is reported as “elevate cellular expression of the ABCA-1 gene”.

Consider `O=C(Nc1ccc(Cl)cc1)c1ccc(Cl)cc1` [(4-chlorophenyl)-N-(4-chlorophenyl)carboxamide], for which the “cellular expression of the ABCA-1 gene” value was “elevate cellular expression of the ABCA-1 gene”.

Consider `O=C1CSC(NC(=O)c2ccc(Cl)cc2)=N1` [(4-chlorophenyl)-N-(4-oxo(1,3-thiazolin-2-yl))carboxamide], for which the “cellular expression of the ABCA-1 gene” value is recorded as “elevate cellular expression of the ABCA-1 gene”.

Consider `O=C(Nc1nc2ccccc2c(=O)o1)c1ccc(Cl)cc1` [(4-chlorophenyl)-N-(4-oxobenzo[d]1,3-oxazin-2-yl)carboxamide], for which the “cellular expression of the ABCA-1 gene” value is recorded as “elevate cellular expression of the ABCA-1 gene”.

As for `Cc1ccc(-c2cnc(NC(=O)c3ccc(Cl)cc3)s2)cc1` [(4-chlorophenyl)-N-[5-(4-methylphenyl)(1,3-thiazol-2-yl)]carboxamide], the “cellular expression of the ABCA-1 gene” value was “elevate cellular expression of the ABCA-1 gene”.

On to `Cn1cccc1CN(CCc1ccccn1)C(=O)c1ccc(Cl)cc1` [(4-chlorophenyl)-N-[(1-methylpyrrol-2-yl)methyl]-N-(2-(2-pyridyl)ethyl)carboxamide], for which the “cellular expression of the ABCA-1 gene” value was “elevate cellular expression of the ABCA-1 gene”.
